Data: US8748603B2, “Crystalline forms of N-[2-[[(2,3-difluorophenyl)methyl]THIO]-6-{[(1R,2S)-2,3-dihydroxy-1-methylpropyl]oxy}-4-pyrimidinyl]-1-azetidinesulfonamide” (AstraZeneca AB, priority 2010, dated 2014)

Experiment: Competitive slurry trials between A-form and D-form (thermodynamic stability)
Assay type: physicochemical
Conditions: for Solid form stability in competitive slurry: slurries containing A-form and D-form in methanol, held at about 5° C. to about 50° C.; for Relative thermodynamic stability of crystalline forms: D-form versus A-form, conclusion from competitive slurries in methanol, about 5° C. to about 50° C.
Description: Competitive slurry trials were performed between the A-form (obtained by Example 1) and the D-form (obtained by Example 2).
Competitive slurries containing the A-form and D-form in methanol were held at any temperatures ranging from about 5° C. to about 50° C.
Complete conversion of the A-form to the D-form takes place, if the slurry is held at a particular temperature for a sufficient duration of time.

C[C@@H](Oc1cc(NS(=O)(=O)N2CCC2)nc(SCc2cccc(F)c2F)n1)[C@@H](O)CO [A-form, N-[2-[[(2,3-difluorophenyl)methyl]thio]-6-{[(1R,2S)-2,3-dihydroxy-1-methylpropyl]oxy}-4-pyrimidinyl]-1-azetidinesulfonamide]
Solid form stability in competitive slurry: transforms to the D-form

C[C@@H](Oc1cc(NS(=O)(=O)N2CCC2)nc(SCc2cccc(F)c2F)n1)[C@@H](O)CO [D-form, N-[2-[[(2,3-difluorophenyl)methyl]thio]-6-{[(1R,2S)-2,3-dihydroxy-1-methylpropyl]oxy}-4-pyrimidinyl]-1-azetidinesulfonamide]
Relative thermodynamic stability of crystalline forms: thermodynamically more stable form than the A-form | Relative thermodynamic stability of crystalline forms (listed as Form D): more thermodynamically stable than the A-form | Solid form stability in competitive slurry: remained stable
